Results: publication PMC12291851, “Hydrogen Sulfide (H2S)-Donating Formyl Peptide Receptor 2 (FPR2) Agonists: Design, Synthesis, and Biological Evaluation in Primary Mouse Microglia Culture” (Antioxidants, 2025)

Key:
APP/PS1 mice = tested on: APP/PS1 mice; parameters: method as in PMID 34468933; conditions: in vivo administration, ref [21]; cited from earlier work
[1] = tested on: mouse models of autism spectrum disorder; parameters: method as in PMID 35215274; conditions: chronic administration; ref [22]; cited from earlier work
[2] = Cell-free H2S release fluorescence assay with probe 9 (7-azido-4-methylcoumarin); assay type: physicochemical; conditions: overall, 24 h and 48 h, PBS/DMSO 10%
Description: The H2S release fluorescence assay was carried out in a final volume of 100 μL PBS/DMSO 10% in black 96-well plates. Solutions with decreasing concentrations of each tested compound were prepared in PBS/DMSO 10%. Then, 50 μL of each solution was dispensed in triplicate in each well. Starting from a 10 mM stock solution, a 200 μM solution of probe 9 was prepared and stored in the dark until 50 μL was dispensed in each well. Blank wells containing only the probe at 100 μM in 100 μL of PBS/DMSO 10% are also prepared. A H2S calibration curve was obtained by incubating solutions of NaSH with the probe under the same conditions, although a different plate was used to minimize interferences due to the diffusion of rapidly released H2S. After 24 h and 48 h incubation in a humidified incubator at 37 °C, 5% CO2, fluorescence reads are obtained from each well with a plate reader TECAN M1000 Pro (Tecan, Männedorf, Switzerland), at λex = 350 nm and λem = 440 nm. Each experiment was replicated at least three times. The data were processed using Microsoft Excel (Microsoft, Redmond, WA, USA) and GraphPad Prism 7 (GraphPad Software, La Jolla, CA, USA).
Compound 9 is a turn-on fluorescent probe that features an azido moiety which can be reduced to amine by H2S, leading to the formation of the fluorescent derivative 7-amino-4-methylcoumarin 10 (λex = 350 nm and λem = 440 nm, Scheme 2). We included NaHS in the assay as a positive control and 3a as a negative control.

[3] = tested on: HepG2 hepatocarcinoma cells; experiment: MTT cell viability assay, MTT added directly to treated media; assay type: cell-based, human; conditions: HepG2, highest tested doses 200 and 20 µM, vehicle 5% DMSO
Description: The cytotoxicity of our compounds was assessed using the well-established MTT assay. HepG2 hepatocarcinoma cells were cultured in Minimum Essential Medium (MEM) (Euroclone, Pero, Italy), supplemented with 10% fetal bovine serum (Euroclone, Pero, Italy), 100 U/mL penicillin, and 100 µg/mL streptomycin sulfate, at 37 °C in a humidified incubator in 5% CO2 atmosphere. For the MTT assays, these cells were cultured up to about 90% confluence and were then seeded at a concentration of 20,000 cells per well in 96-well plates. After 24 h, the culture medium was replaced with solutions at various concentrations of each compound in MEM/DMSO 5% (v/v). Control wells were incorporated in the experimental design, consisting of vehicle (MEM/DMSO 5%) and pure medium controls.
In the first round of cytotoxicity assays, 0.5 mg/mL MTT was added to each well 2 or 24 h from treatment and left to incubate for 3–5 h. In the second round of cytotoxicity assays, at 2 or 24 h after treatment, treated media were removed, the cells were washed once in PBS, and fresh medium containing 0.5 mg/mL MTT was added to each well and left to incubate for 3–5 h.
Subsequently, the supernatant was removed, and the formazan crystals were dissolved in DMSO/EtOH 1:1 (100 µL/well). Absorbance values were then recorded from each well using a Victor 3 plate reader (PerkinElmer, Shelton, CT, USA) at 570 nm. All presented data were obtained from 3 to 5 experiments performed in triplicate. Cell viability values are expressed as mean ± S.E.M. and were plotted using GraphPad Prism 7.
Next, we assessed H2S release in a biological environment using human hepatocarcinoma HepG2 cells as a model. The intracellular release of H2S was detected with the WSP-1 probe, a turn-on fluorescent probe that selectively and irreversibly reacts with H2S. Considering that a high micromolar concentration of the test compounds is required to obtain a robust fluorescent signal, we first evaluated the compounds’ cytotoxicity after 2 h and 24 h of incubation with the MTT assay in HepG2 cells. […] We accounted for this by adding a vehicle control with 5% DMSO and a control without DMSO to our experimental design.

[4] = Cell-free MTT-based H2S release assay; assay type: physicochemical; conditions: 24 h incubation in MEM with 10% DMSO
Description: Solutions at different concentrations of each compound in 100 µL of serum-free MEM/10% DMSO with 0.5 mg/mL 3-(4,5-dimethylthiazol-2yl)-2,5-diphenyltetrazolium bromide (MTT) were incubated for 5 h or 24 h in a humidified incubator at 37 °C in 5% CO2 atmosphere. The experimental design comprised blank wells containing only medium and MTT, and a H2S calibration curve obtained by incubating nine solutions at decreasing concentrations (100 µM to 0.01 µM) of NaHS in medium and MTT. At the end of incubation time, the supernatant was removed, the […] crystals were dissolved in 100 µL DMSO/EtOH (1:1 v/v), and absorbance values were read using a Victor 3 plate reader (PerkinElmer, Shelton, CT, USA) at 570 nm. H2S values are expressed as mean ± S.E.M. of the results of three independent experiments conducted in triplicate, and were plotted using GraphPad Prism 7.
To decipher such results and considering the redox properties of H2S, we questioned if H2S released by our compounds in the culture media could interfere with the conversion of MTT (3-[4,5-dimethylthiazol-2-yl]-2,5-diphenyl tetrazolium bromide) to formazan, which is usually related to cell viability. Thus, we ran cell-free experiments in which MTT was used as the substrate to capture the reductive action of H2S. We found, in agreement with Gerő et al., that some of our thioureas and thioamides reduced MTT to formazan after 24 h incubation in MEM with 10% DMSO.

[5] = tested on: LPS-stimulated rat primary microglial cells and mice organotypic hippocampal cultures; conditions: LPS stimulation; ref [19],[20]; cited from earlier work
HepG2 cells = experiment: Intracellular H2S release with WSP-1 probe; assay type: cell-based, human; conditions: HepG2, tested concentrations 100-300 μM, 60 min
Description: All cell culture reagents were purchased from S.I.A.L. S.r.l. (Rome, Italy). WSP-1 (Washington State Probe-1, 3′-methoxy-3-oxo-3H-spiro[isobenzofuran-1,9′-xanthen]-6′-yl 2-(pyridine-2-yl-disulfanyl benzoate), was obtained from Cayman Chemical (Cayman, Ann Arbor, MI, USA). HepG2, human hepatocellular carcinoma cells, was obtained from American Type Culture Collection (ATCC, Bethesda, MD, USA). Human hepatocellular carcinoma cells (HepG2) were cultured in Minimum Essential Eagle’s Medium. This medium was supplemented with 10% (v/v) Fetal Bovine Serum, 1% (v/v) Glutamine and 1% (v/v) Penicillin-Streptomycin, 1% non-essential amino acids. Cells were cultivated at 37 °C with 5% CO2 at saturated humidity.
These experiments were carried out as already described. HepG2 cells were cultured up to about 90% confluence, and 24 h before the experiment cells were seeded into a 96-well flat bottom black plate (50,000 cells per well). After 24 h, the medium was replaced and cells were incubated at 37 °C for 30 min with a 10 mM solution of the fluorescent WSP-1 probe, which is highly sensitive for H2S detection. After incubation, the supernatant was removed and replaced with different concentrations (100, 200, and 300 µM) of the tested compounds dissolved in HBSS buffer. […] ADT 100 µM was used as a slow H2S-donor reference compound. Data were analyzed by one-way ANOVA for repeated measures, followed by post hoc Bonferroni’s multiple comparison test. Results are expressed as mean ± SEM of 3 independent experiments in triplicate. Statistical significance was accepted at a level of p < 0.05.
Next, we assessed the intracellular H2S release of thioureas and thioamides in HepG2 cells. The compounds were tested at different concentrations (100–300 μM) to evaluate if the release was dose-dependent. We also assayed ADT-OH and TIA as reference H2S-donors, and 3a as a negative control. The results were normalized to the fluorescence signal obtained with 100 μM ADT-OH.

[6] = tested on: organotypic hippocampal cultures; parameters: method as in PMID 37775304, PMID 37947648; conditions: nanomolar doses; ref [24],[25]; cited from earlier work

Row | Compound | neuronal survival, microglial cell density and plaque load (APP/PS1 mice) | inflammatory markers and social behavior [1] | H2S release detected with probe 9 in aqueous media [2] | mortality compared to vehicle (MTT) [3] [%] | absorbance signal (MTT reduction to formazan) indicative of H2S release [4] | effect on LPS-induced pro- and anti-inflammatory cytokine levels [5] | intracellular H2S release, WSP-1 fluorescence signal vs vehicle (HepG2 cells) | protective and anti-inflammatory properties [6]
1 | N#Cc1ccc(C[C@H](NC(=O)Nc2ccc(F)cc2)C(=O)NCC2(c3ccc(F)c(Cl)c3)CC2)cc1 [3a, (S)-N-[[1-(3-chloro-4-fluorophenyl)cyclopropyl]methyl]-3-(4-cyanophenyl)-2-[3-(4-fluorophenyl)ureido]propenamide, reference compound] | improvement of neuronal survival and decreased microglial cell density and plaque load | improved inflammatory markers, with a beneficial effect on social behavior | no response | > 50 | no signal | anti-inflammatory properties | comparable to that of the vehicle | –
2 | N#Cc1ccc(C[C@H](NC(=O)Nc2ccc(F)cc2)C(=O)N2CCc3ccc(F)cc32)cc1 [3c, (S)-1-[3-(4-cyanophenyl)-1-(6-fluoroindolin-1-yl)-1-oxopropan-2-yl]-3-(4-fluorophenyl)urea] | – | – | – | – | – | – | – | beneficial protective and anti-inflammatory properties at nanomolar doses
